# Measured values taken from patent publication US20100137412A1 (priority 2008, published 2010).
# How the values were obtained:
# VSV-G pseudotypes = type: cell-based, vesicular stomatitis virus
# [1] = test system: pseudotypes expressing H5HA and N1NA; type: cell-based, H5N1
# [2] = test system: H5HA and N1NA pseudotypes; type: cell-based, H5N1
# [3] = test system: HIV-1 envelope pseudotypes; type: cell-based
smiles,measurement,setting,value
CCOC(=O)C1=C[C@@H](OC(CC)CC)[C@H](NC(C)=O)[C@@H](N)C1 [oseltamivir phosphate],effect on transduction efficiency,VSV-G pseudotypes,did not reduce
same,effect on transduction efficiency,[1],marked dose-dependent decrease
same,effect on transduction efficiency,[2],did not reduce
same,effect on transduction efficiency,[3],did not reduce
